Molecular target: T1, acetylcholinesterase (AChE) (Electrophorus electricus, UniProt O42275)
T1 construct: commercial native enzyme from electric eel (Sigma-Aldrich)
Assay: Ellman assay, […] nm
Type: biochemical

T1 sequence (O42275 24-633): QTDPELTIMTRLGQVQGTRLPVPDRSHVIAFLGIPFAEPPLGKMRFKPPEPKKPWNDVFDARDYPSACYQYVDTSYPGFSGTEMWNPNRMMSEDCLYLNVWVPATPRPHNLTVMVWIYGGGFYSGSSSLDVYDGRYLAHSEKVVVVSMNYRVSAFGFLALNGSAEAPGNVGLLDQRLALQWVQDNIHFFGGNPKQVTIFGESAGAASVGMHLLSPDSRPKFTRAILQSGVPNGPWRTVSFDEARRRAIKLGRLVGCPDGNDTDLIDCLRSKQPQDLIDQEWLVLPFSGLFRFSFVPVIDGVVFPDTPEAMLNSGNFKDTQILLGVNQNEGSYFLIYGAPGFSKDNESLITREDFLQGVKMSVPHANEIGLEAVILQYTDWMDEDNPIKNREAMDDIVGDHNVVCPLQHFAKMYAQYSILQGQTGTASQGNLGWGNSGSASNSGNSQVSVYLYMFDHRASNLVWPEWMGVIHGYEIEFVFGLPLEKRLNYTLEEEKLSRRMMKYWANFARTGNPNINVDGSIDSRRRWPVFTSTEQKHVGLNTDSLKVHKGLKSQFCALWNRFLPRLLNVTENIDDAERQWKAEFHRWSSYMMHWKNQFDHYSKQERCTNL

Q: For `C[C@@H]1C[C@H]2OC(=O)[C@@]3(C)CCC[C@@](C)([C@@H]23)[C@@]1(O)CCc1ccoc1` [marrubiin], which IC50 is on record?
A: Its IC50 is 52.7 ± 5.66 µM.

— PMC10821196, “Analysis of Marrubiin in Marrubium alysson L. Extract Using Advanced HPTLC: Chemical Profiling, Acetylcholinesterase Inhibitory Activity, and Molecular Docking” (Metabolites, 2023)
